# Test results reported in patent US20240024273A1, “TOPICAL ADMINISTRATION OF 2-(DIETHYLAMINO)ETHYL 2-(4-ISOBUTYLPHENYL)PROPRIONATE FOR TREATMENT OF DISEASES” (TECHFIELDS PHARMA CO., LTD., priority 2020, published 2024).
# Read-outs that look alike come from different tables or passages of the source.
# Tests used:
# [1] = In vitro half-life with animal skin; assay type: in vitro ADME; conditions: read-out: in vitro T1/2 (converted)
# [2] = In vitro half-life in plasma; assay type: in vitro ADME
# [3] = Acute dermal maximum tolerated dose study; assay type: in vivo, Rats; conditions: both sexes, rat, in vivo, topical or ocular, 1000 mg/kg; once, dermal; male and female rats
# rats = test: Acute dermal maximum tolerated dose study; assay type: in vivo; conditions: single dermal dose 1000 mg/kg
# [4] = test system: Adjuvant-induced arthritis; test: Adjuvant-induced arthritis; assay type: in vivo, Lewis rats; conditions: 10, 30 and 90 mg/kg daily, topical
# [5] = Phase 1 clinical study: plasma pharmacokinetics of prodrug and ibuprofen; assay type: in vivo, human; conditions: for AUC0-12: read-out: prodrug AUC0-12; for AUC(0-t): read-out: prodrug AUClast; for Cmax: read-out: prodrug Cmax; for Tmax: read-out: prodrug Tmax, median (range); for half-life: read-out: prodrug t1/2 (converted)
# Protocol: Following a 5-day washout period, 2-(diethylamino)ethyl 2-(4-isobutylphenyl)propionate was administered b.i.d. during Days 6-11, and a morning dose only was administered to Day 12. Blood samples were collected for PK analysis over the 120-hour post-dose period following the Day 12 dose. Additionally, pre-dose blood samples were collected on Day 7 through Day 11 to evaluate steady-state status.
# The same study procedures were followed as described in Part 1.
# For single dose PK, serial blood samples were collected on Day 1 dose at the following time points: 0 (pre-dose), 0.25, 0.5, 0.75, 1, 1.5, 2, 2.5, 3, 4, 5, 6, 8, 10, 12, 18, 24, 48, 72, 96 and 120 hours post-dose.
# For multiple-dose PK, serial blood samples were collected on Day 12 at the following time points: 0 (pre-dose), 0.25, 0.5, 0.75, 1, 1.5, 2, 2.5, 3, 4, 5, 6, 8, 10, 12, 18, 24, 48, 72, 96 and 120 hours post-dose.
# The relative bioavailability of the single dose 70 mg topical application vs. 70 mg spray application was determined based on AUCtau, AUCinf and Cmax. The 90% confidence intervals (CIs) on the ratio of topical application vs. spray application were calculated.
# [6] = Acute maximum tolerated dose study, subcutaneous injection; parameters: species or system Beagle dogs; conditions: beagle, dog, in vivo, sc
# Sprague Dawley rats = test: Behavioral effects, functional observational battery; assay type: in vivo; conditions: single dermal dose 50, 250, 750 mg/kg
# Acetic Acid Induced Pain = test: Acetic acid induced pain (writhing); assay type: in vivo, ICR mice
# [7] = test system: Collagen II induced arthritis; test: Collagen II induced arthritis; assay type: in vivo, Lewis rats; conditions: 10, 30 and 90 mg/kg daily, topical
# [8] = human, plasma, topical or ocular, 17.5 mg, Day 1, 17.5 mg topical
# [9] = human, plasma, topical or ocular, 17.5 mg, Day 12, 17.5 mg b.i.d. topical
# [10] = human, plasma, topical or ocular, 35 mg, Day 1, 35 mg topical
# [11] = human, plasma, topical or ocular, 35 mg, Day 12, 35 mg b.i.d. topical
# [12] = human, plasma, topical or ocular, 70 mg, Day 1, 70 mg topical
# [13] = human, plasma, topical or ocular, 70 mg, Day 12, 70 mg b.i.d. topical
# [14] = human, plasma, topical or ocular, 140 mg, Day 1, 140 mg topical
# [15] = human, plasma, topical or ocular, 140 mg, Day 12, 140 mg b.i.d. topical
# [16] = human, plasma, topical or ocular, 280 mg, Day 1, 280 mg topical
# [17] = human, plasma, topical or ocular, 280 mg, Day 12, 280 mg b.i.d. topical
# [18] = human, plasma, topical, 70 mg, Day 1, 70 mg spray
# [19] = human, plasma, topical, 70 mg, Day 12, 70 mg b.i.d. spray
smiles,measurement,setting,value
CCN(CC)CCOC(=O)C(C)c1ccc(CC(C)C)cc1 (stereo not shown) [2-(diethylamino)ethyl 2-(4-isobutylphenyl)propionate],half-life,[1],~20 h
same,fraction metabolized to ibuprofen in any human tissue (except skin),[2],> 99.9%
same,half-life,"[2]; in plasma, read-out: in vitro T1/2",~4 min
same,MTD,[3],> 1000 mg/kg
same,tolerability,rats,2-(4-isobutylphenyl)propionate to rats at 1000 mg/kg was well tolerated
same,arthritis,[4],significantly inhibited arthritis.
same,dose proportionality of prodrug and ibuprofen Cmax and AUC0-last,"[5]; 17.5 mg to 280 mg, single and multiple",did not increase in a dose-proportional manner
same,"prodrug mean Cmax after 7 days b.i.d., increase",[5]; 140 mg and 280 mg doses,about 2 fold
same,prodrug Kel,"[5]; Day 12, 17.5 mg b.i.d. topical",0.0241 (N/A) 1/h
same,prodrug Kel,"[5]; Day 12, 70 mg b.i.d. topical",0.0656 (N/A) 1/h
same,prodrug Kel,"[5]; Day 12, 140 mg b.i.d. topical",0.0398 (N/A) 1/h
same,prodrug Kel,"[5]; Day 12, 280 mg b.i.d. topical",0.0374 (0.0310) 1/h
same,conversion of absorbed prodrug to ibuprofen,"[5]; human, in vivo",> 99%
same,AUC0-12,[5]; [8],0.837 ng·h/mL
same,AUC(0-t),[5]; [8],1.45 ng·h/mL
same,Cmax,[5]; [8],0.158 ng/mL
same,Tmax,[5]; [8],8 h
same,AUC0-12,[5]; [9],0.809 ng·h/mL
same,AUC(0-t),[5]; [9],1.31 ng·h/mL
same,Cmax,[5]; [9],0.092 ng/mL
same,Tmax,[5]; [9],8 h
same,AUC0-12,[5]; [10],0.34 ng·h/mL
same,AUC(0-t),[5]; [10],0.864 ng·h/mL
same,Cmax,[5]; [10],0.0862 ng/mL
same,Tmax,[5]; [10],11 h
same,AUC0-12,[5]; [11],1.21 ng·h/mL
same,AUC(0-t),[5]; [11],2.29 ng·h/mL
same,Cmax,[5]; [11],0.153 ng/mL
same,Tmax,[5]; [11],5.12 h
same,AUC0-12,[5]; [12],0.836 ng·h/mL
same,AUC(0-t),[5]; [12],1.99 ng·h/mL
same,Cmax,[5]; [12],0.16 ng/mL
same,Tmax,[5]; [12],10 h
same,AUC0-12,[5]; [13],1.1 ng·h/mL
same,AUC(0-t),[5]; [13],1.49 ng·h/mL
same,Cmax,[5]; [13],0.162 ng/mL
same,Tmax,[5]; [13],3.5 h
same,AUC0-12,[5]; [14],0.478 ng·h/mL
same,AUC(0-t),[5]; [14],1.45 ng·h/mL
same,Cmax,[5]; [14],0.116 ng/mL
same,Tmax,[5]; [14],18 h
same,AUC0-12,[5]; [15],1.82 ng·h/mL
same,AUC(0-t),[5]; [15],3.6 ng·h/mL
same,Cmax,[5]; [15],0.305 ng/mL
same,Tmax,[5]; [15],2.5 h
same,AUC0-12,[5]; [16],0.675 ng·h/mL
same,AUC(0-t),[5]; [16],4.48 ng·h/mL
same,Cmax,[5]; [16],0.233 ng/mL
same,Tmax,[5]; [16],18 h
same,AUC0-12,[5]; [17],3.71 ng·h/mL
same,AUC(0-t),[5]; [17],11.6 ng·h/mL
same,Cmax,[5]; [17],0.505 ng/mL
same,Tmax,[5]; [17],0.25 h
same,half-life,"[5]; human, plasma, topical or ocular, Day 12, 17.5 mg b.i.d. topical",28.8 h
same,half-life,"[5]; human, plasma, topical or ocular, Day 12, 70 mg b.i.d. topical",10.6 h
same,half-life,"[5]; human, plasma, topical or ocular, Day 12, 140 mg b.i.d. topical",17.4 h
same,AUC(0-inf),"[5]; human, plasma, topical or ocular, Day 12, 280 mg b.i.d. topical, read-out: prodrug AUCinf",18.1 ng·h/mL
same,half-life,"[5]; human, plasma, topical or ocular, Day 12, 280 mg b.i.d. topical",37.8 h
same,AUC0-12,[5]; [18],0.514 ng·h/mL
same,AUC(0-t),[5]; [18],0.947 ng·h/mL
same,Cmax,[5]; [18],0.119 ng/mL
same,Tmax,[5]; [18],10 h
same,AUC0-12,[5]; [19],1.06 ng·h/mL
same,AUC(0-t),[5]; [19],2.62 ng·h/mL
same,Cmax,[5]; [19],0.185 ng/mL
same,Tmax,[5]; [19],3 h
same,relative bioavailability of spray vs topical application (plasma ibuprofen),"[5]; single application, 70 mg",lower
same,time by which all subjects had measurable plasma prodrug levels,[5]; topical application,≤ 3 hours post-dose
same,MTD,[6],500 mg/kg
same,neurobehavioral changes (FOB test),Sprague Dawley rats,"250, and 750 mg/kg of ibuprofenamine were not associated with any"
same,inhibitory effect compared with Vehicle,Acetic Acid Induced Pain; high dose,2-(4-isobutylphenyl)propionate showed significant inhibitory effect
same,inhibitory effect,Acetic Acid Induced Pain; low dose,2-(4-isobutylphenyl)propionate did not show any inhibitory effect in this
same,onset of the disease,[7],postponed the onset of the disease.
